According to PubChem BioAssay (NCI):
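48-hour exposure; five concentrations; linearly interpolated endpoints. GI50: concentration for 50% inhibition of growth. TGI is the concentration that stops growth completely.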

Tests used:
Test in all cases: NCI anticancer screen, dose series, 48 h
NCI-H23 lung = system: NCI-H23 lung
LOX IMVI melanoma = system: LOX IMVI melanoma
HOP-62 NSCLC = system: HOP-62 NSCLC
SF-539 CNS = system: SF-539 CNS
NCI-H226 lung = system: NCI-H226 lung
UO-31 renal = system: UO-31 renal
TK-10 renal = system: TK-10 renal
HCT-15 colon = system: HCT-15 colon
RPMI-8226 leukemia = system: RPMI-8226 leukemia
ACHN renal = system: ACHN renal

| Structure (SMILES) | GI50 (NCI-H23 lung) [µM] | TGI (NCI-H23 lung) [µM] | GI50 (LOX IMVI melanoma) [µM] | TGI (LOX IMVI melanoma) [µM] | GI50 (HOP-62 NSCLC) [µM] | TGI (HOP-62 NSCLC) [µM] | GI50 (SF-539 CNS) [µM] | TGI (SF-539 CNS) [µM] | GI50 (NCI-H226 lung) [µM] | TGI (NCI-H226 lung) [µM] | GI50 (UO-31 renal) [µM] | TGI (UO-31 renal) [µM] | GI50 (TK-10 renal) [µM] | TGI (TK-10 renal) [µM] | GI50 (HCT-15 colon) [µM] | TGI (HCT-15 colon) [µM] | GI50 (RPMI-8226 leukemia) [µM] | TGI (RPMI-8226 leukemia) [µM] | GI50 (ACHN renal) [µM] | TGI (ACHN renal) [µM] |
| --- | --- | --- | --- | --- | --- | --- | --- | --- | --- | --- | --- | --- | --- | --- | --- | --- | --- | --- | --- | --- |
| CCOC(=O)/C(=C/c1ccc([N+](=O)[O-])cc1)C(=O)c1ccccc1 | 2.25 | 5.56 | 1.77 | 3.38 | 2.28 | 6.07 | 1.82 | 3.58 | 2.57 | 6.45 | 1.66 | 3.18 | 2.27 | 6.54 | 1.99 | 4.51 | 2.34 | 6.07 | 2.03 | 4.35 |
| C=C1C(=O)O[C@H]2[C@H]1CC/C(Cn1cc(Cn3ccc4ccccc43)nn1)=C\CC[C@@]1(C)O[C@@H]21 | 2.5 | 6.49 | 1.59 | 3.08 | 6.96 | 20.1 | 1.86 | 3.35 | 1.53 | 3.06 | 1.26 | 2.53 | 1.65 | 3.05 | 1.3 | 2.77 | 1.68 | 4.7 | 1.18 | 2.43 |
| CNNCc1ccc(C(=O)NC(C)C)cc1 | – | > 500 | – | > 500 | > 500 | > 500 | – | > 500 | > 500 | > 500 | – | > 500 | – | > 500 | > 500 | > 500 | – | > 500 | – | > 500 |
| NC(CNO)C(=O)O (stereo not drawn) | – | > 100 | – | > 100 | – | > 100 | – | > 100 | – | > 100 | – | > 100 | – | > 100 | – | > 100 | – | > 100 | – | > 100 |
| COC(=O)C(=O)C(C(=O)C(=O)Nc1ccc(Cl)cc1C)c1nc2ccc(C(=O)c3ccccc3)cc2[nH]c1=O (stereo not drawn) | – | > 100 | – | > 100 | – | > 100 | – | > 100 | – | > 100 | – | > 100 | – | > 100 | – | > 100 | – | > 100 | – | > 100 |
| COC(=O)C(C)NP(=O)(OCc1ccc(Cn2cnc3c(=O)[nH]c(N)nc32)cc1)Oc1ccccc1 (stereo not drawn) | > 100 | > 100 | > 100 | > 100 | > 100 | > 100 | > 100 | > 100 | > 100 | > 100 | > 100 | > 100 | > 100 | > 100 | > 100 | > 100 | > 100 | > 100 | > 100 | > 100 |
| CCC(C)OC(=O)C1C2CCC(O2)C1C(=O)O (stereo not drawn) | – | > 100 | – | > 58.3 | – | > 100 | – | > 100 | – | > 100 | – | > 100 | – | > 100 | – | > 56 | – | > 68.7 | – | > 100 |
| O=C1/C(=C\C(Cl)=C/c2ccc([N+](=O)[O-])cc2)SC(=S)N1CCc1ccc(O)cc1 | 0.632 | 2.17 | 0.187 | 0.387 | 1.41 | 4.22 | 0.328 | 1.12 | 1.35 | 3.48 | 0.324 | 1.24 | 1.53 | 3.25 | 0.246 | 0.741 | 0.268 | 0.884 | 0.249 | 0.584 |
| O=C1C(=O)c2ccccc2-c2ccccc21 | 1.68 | 3.99 | 0.367 | 1.79 | 1.72 | 5.24 | 1.6 | 2.99 | 1.72 | 3.18 | 1.44 | 2.82 | 1.82 | 3.3 | 1.05 | 2.92 | 0.583 | 2.79 | 1.44 | 2.84 |
| CCOC(=O)c1c(C)nc2ccc(Cl)cc2c1-c1ccccc1 | 28.7 | > 100 | 17.7 | 37.8 | 15 | 31.7 | 19.6 | 39.9 | 19.2 | 39.7 | 14.8 | 31.1 | 34.4 | > 100 | 16.9 | 44.6 | 15.9 | 40 | 17.1 | 35 |
| O=c1cc(-c2ccc(Cl)cc2)[nH]c2ncccc12 | – | > 100 | – | > 100 | – | > 100 | – | > 100 | – | > 100 | – | > 100 | – | > 100 | – | > 100 | – | 95 | – | > 100 |
| C=C[C@]1(C)CCC2=C(CCC3C2(C)CCC[C@]3(C)CO)C1 (stereo partly drawn) | – | > 100 | – | 68 | – | > 100 | – | > 100 | – | > 100 | – | > 100 | – | > 100 | – | > 100 | – | > 100 | – | > 100 |
| COc1ccc(-c2cc(=O)c3c(OC)c(OC)c(OC)c(OC)c3o2)cc1OC | – | > 100 | – | > 100 | – | > 100 | – | > 100 | – | > 100 | – | > 100 | – | > 100 | – | > 100 | – | > 100 | – | > 100 |
